The values below come from patent publication US4994270A, “A54145 antibiotics and process for their production” (Eli Lilly and Company, priority 1988, dated 1991).

The structures appear in SMILES notation. Converted amounts (≈) assume the structure as drawn. “And” between values parts separate entries of the source, which are not always exact repeats. Equal values may be shown once. Starred links: 1 amine or outer side, 2 acyl side, 3 side chain; linkers in the order of their positions; H or OH if unused. Positions of bridges follow the written chain, without caps; N, C: chain ends. Non-standard residues stand in square brackets, D forms with d. Residues, ends and D or L forms follow the SMILES beside them. ξ: configuration not given here. *: point of attachment. ξAsp(3ξ-OMe) = COC(C(=O)O)C(N)C(=O)O; X1 = CC(CC(=O)O)C(N[*:1])C(=O)[*:2]; ξAsn(3ξ-OH) = NC(=O)C(O)C(N)C(=O)O; Decanoyl = CCCCCCCCCC(=O)*; X2 = CC(C)CCCCCCC(=O)*; Sar = CNCC(=O)O

Experiment [1] relates to Streptococcus pneumoniae Park1. As to the kind of experiment: MIC, conventional agar-dilution assay. In kind it is cell-based. As to the method:
(§1) The A54145 antibiotics inhibit the growth of pathogenic bacteria. […] The MIC's in Table IX were determined by conventional agar-dilution assays.

The subject of experiment [2] is Streptococcus pyogenes C203. Description: MIC, conventional agar-dilution assay. In kind it is cell-based. As to the method: as §1
Experiment [3] deals with Staphylococcus aureus V41. As to the kind of experiment: MIC, conventional agar-dilution assay. In kind it is cell-based. As to the method:
as §1

Experiment [4] has as its system Staphylococcus aureus X400. As to the kind of experiment: MIC, conventional agar-dilution assay. In kind it is cell-based. As to the method:
as §1

In experiment [5] the test system is Staphylococcus epidermidis EPI1. Description: MIC, conventional agar-dilution assay. It is filed as cell-based. As to the method: as §1
Experiment [6] has as its system Staphylococcus aureus X1.1. As to the kind of experiment: MIC, conventional agar-dilution assay. It is filed as cell-based. As to the method:
as §1

Experiment [7] relates to Staphylococcus epidermidis 222. As to the kind of experiment: MIC, conventional agar-dilution assay. In kind it is cell-based. As to the method:
as §1

Experiment [8] deals with Streptococcus sp. group D X66. Description: MIC, conventional agar-dilution assay. In kind it is cell-based. As to the method:
as §1

Experiment [9] has as its system Streptococcus sp. group 2041. As to the kind of experiment: MIC, conventional agar-dilution assay. In kind it is cell-based. As to the method: as §1
Experiment [10] has as its system Staphylococcus aureus S13E. As to the kind of experiment: MIC, conventional agar-dilution assay. In kind it is cell-based. As to the method: as §1
Experiment [11] has as its system Streptococcus pyogenes. Description: ED50 in experimentally infected mice. In kind it is in vivo. Particulars: mice infected with Streptococcus pyogenes, subcutaneous; for ED50 Value: doses given 1 and 4 hours postinfection. As to the method:
(§2) The A54145 antibiotics have shown in vivo antimicrobial activity against experimentally-induced infections in laboratory animals. When two doses of test compound were administered to mice experimentally infected with Streptococcus pyogenes or Staphylococcus aureus, the activity observed was measured as an ED50 value [effective dose in mg/kg to protect 50% of the test animals: see Warren Wick, et al. J. Bacteriol. 81 233-235 (1961)].

Experiment [12] relates to Streptococcus faecalis ATCC 29212. As to the kind of experiment: Stimulation of in vitro activity by calcium ions. Also noted: dose or concentration left out as unconfirmed. In kind it is cell-based. As to the method:
(§3) The in vitro activity of the A54145 antibiotics is stimulated by the presence of calcium ions. For example, the in vitro activity of A54145A against Staphylococcus aureus 209P and Streptococcus faecalis ATCC 29212 was stimulated about 100 times by the presence of Ca^++ ([…]).

For experiment [13], the system named is Staphylococcus aureus 209P. Description: Stimulation of in vitro activity by calcium ions. It is filed as cell-based. The arrangement: dose or concentration left out as unconfirmed. As to the method: as §3
The nature of experiment [14]: Chick growth performance test (weight gain, feed efficiency). It is filed as in vivo, chicks. Particulars: for Weight Gain Amt.: chicks 7-14 days of age; for Feed/Gain % Impr. / Weight Gain % Impr.: relative to the control mean. The text has this: In the tests, the compounds were given to chicks at the concentrations indicated in the feed. The test period was the 7-day period from 7-14 days of age of the birds. Growth performance (weight gain, feed consumption and feed efficiency) was compared to that of contemporary controls.

Experiment [15] can be described thus: Growth performance of starter pigs. It is filed as in vivo. An excerpt: In this test, a total of 145 barrows and gilts, averaging 22 pounds starting weight, were used to determine the effect of various dosages of A54145 on the growth performance of starter pigs. The pigs were fed an 18% crude protein corn-soy diet and were housed in a completely enclosed building with wire mesh floors elevated over a flush floor. The effect of the treatments on performance was studied for a 28-day trial period.

Experiment [16] has as its system Staphylococcus aureus. As to the kind of experiment: ED50 in experimentally infected mice. In kind it is in vivo. Particulars: mice infected with Staphylococcus aureus; subcutaneous; doses given 1 and 4 hours postinfection. As to the method:
as §2

For the compound `CCCCCCCCCC(=O)NC(Cc1c[nH]c2ccccc12)C(=O)NC(CCC(=O)O)C(=O)NC(C(=O)NC1C(=O)N(C)CC(=O)NC(C)C(=O)NC(CC(=O)O)C(=O)NC(CCCCN)C(=O)NC(C(OC)C(=O)O)C(=O)NCC(=O)NC(CC(N)=O)C(=O)NC(CCC(=O)O)C(=O)NC(C(C)CC)C(=O)OC1C)C(O)C(N)=O` (centres unmarked) [Component A54145A1] (Decanoyl-WE[ξAsn(3ξ-OH)]T[Sar]ADK[ξAsp(3ξ-OMe)]GNEI; ester 4-C; configuration not given here), the MIC – broadly, the lowest concentration found to suppress growth – in [1] is 4 µg/mL (≈ 2.43 µM); in experiment [2], 1 µg/mL (≈ 0.608 µM); in [3] it was 4 µg/mL (≈ 2.43 µM); in experiment [4] it was 8 µg/mL (≈ 4.86 µM); in experiment [5] it was 4 µg/mL (≈ 2.43 µM); in [6], 4 µg/mL (≈ 2.43 µM). Besides, the MIC in experiment [7] worked out at 4 µg/mL (≈ 2.43 µM); in experiment [8] it was 16 µg/mL (≈ 9.73 µM); in [9], 32 µg/mL (≈ 19.5 µM); in experiment [10] it was 8 µg/mL (≈ 4.86 µM). Also, in [11], the “ED50 Value” is given as 5.0 mg/kg × 2.

Take `CCC(C)C1NC(=O)C(CCC(=O)O)NC(=O)C(CC(N)=O)NC(=O)CNC(=O)C(C(OC)C(=O)O)NC(=O)C(CCCCN)NC(=O)C(CC(=O)O)NC(=O)C(C)NC(=O)CN(C)C(=O)C(NC(=O)C(NC(=O)C(CCC(=O)O)NC(=O)C(Cc2c[nH]c3ccccc23)NC(=O)CCCCCCC(C)C)C(O)C(N)=O)C(C)OC1=O` (centres unmarked) [Component A54145A] (X2-WE[ξAsn(3ξ-OH)]T[Sar]ADK[ξAsp(3ξ-OMe)]GNEI; ester 4-C; configuration not given here): the “stimulation of in vitro activity by Ca++” value in experiment [12] and in [13] was “about 100 times” each time. Moreover, the minimum inhibitory concentration (MIC) was 8 µg/mL (≈ 4.86 µM) in [1]; 2 µg/mL (≈ 1.22 µM) in experiment [2]; 8 µg/mL (≈ 4.86 µM) in experiment [3]; 8 µg/mL (≈ 4.86 µM) in experiment [4]; 4 µg/mL (≈ 2.43 µM) in experiment [5]; 8 µg/mL (≈ 4.86 µM) in experiment [6]. Besides, the MIC in experiment [7] came to 4 µg/mL (≈ 2.43 µM); in experiment [8], 16 µg/mL (≈ 9.73 µM); in [9] it was 64 µg/mL (≈ 38.9 µM); in [10], 8 µg/mL (≈ 4.86 µM). Further, the “Feed/Gain Ratio” value in [14] (Table XII, 20 g/ton) came out at 1.546. Also, in [14] (Table XII, 20 g/ton in feed), the “Weight Gain Amt.” value is reported as 168 g. For the same compound, the “Feed/Gain % Impr.” value in [14] (Table XII, 20 g/ton) is reported as 11.0%. For the same compound, the “Weight Gain % Impr.” value in [14] (Table XII, 20 g/ton) is reported as 26.3%. Also, the “weight gains in chickens (in words)” value in experiment [14] is “increased weight gains”. In addition, the “feed/gain ratio in pigs (in words)” value in experiment [15] was “improved the feed/gain ratio”. Also, the “ED50 Value” in experiment [16] is recorded as 3.3 mg/kg × 2; in experiment [11] it was 2.4 mg/kg × 2. The “ED50 Value, individual values of two tests” value in [11] (individual tests behind the average) was 1.6 mg/kg × 2 and 3.1 mg/kg × 2.

With `CCCCCCCCCC(=O)NC(Cc1c[nH]c2ccccc12)C(=O)NC(CCC(=O)O)C(=O)NC(C(=O)NC1C(=O)N(C)CC(=O)NC(C)C(=O)NC(CC(=O)O)C(=O)NC(CCCCN)C(=O)NC(C(OC)C(=O)O)C(=O)NCC(=O)NC(CC(N)=O)C(=O)NC(C(C)CC(=O)O)C(=O)NC(C(C)CC)C(=O)OC1C)C(O)C(N)=O` (centres unmarked) [Component A54145B] (Decanoyl-WE[ξAsn(3ξ-OH)]T[Sar]ADK[ξAsp(3ξ-OMe)]GN[X1]I; ester 4-C; configuration not given here), the minimal inhibitory concentration (MIC) in experiment [1] was found to be 2 µg/mL (≈ 1.21 µM); in [2], 0.5 µg/mL (≈ 0.301 µM); in [3], 2 µg/mL (≈ 1.21 µM); in experiment [4] it was 2 µg/mL (≈ 1.21 µM); in experiment [5] it was 2 µg/mL (≈ 1.21 µM); in experiment [6], 2 µg/mL (≈ 1.21 µM). In addition, the MIC turned out to be 2 µg/mL (≈ 1.21 µM) in experiment [7], 4 µg/mL (≈ 2.41 µM) in [8], 8 µg/mL (≈ 4.82 µM) in experiment [9] and 2 µg/mL (≈ 1.21 µM) in experiment [10]. Further, the “Feed/Gain Ratio” value turned out to be 1.887 in experiment [14] (Table XIII, 5 g/ton); 1.730 in experiment [14] (Table XIII, 10 g/ton); 1.785 in [14] (Table XIII, 20 g/ton). The “Weight Gain Amt.” value in experiment [14] (Table XIII, 5 g/ton in feed) was found to be 341 g; in experiment [14] (Table XIII, 10 g/ton in feed), 392 g; in experiment [14] (Table XIII, 20 g/ton in feed), 402 g. Moreover, the “Feed/Gain % Impr.” value in experiment [14] (Table XIII, 5 g/ton) is given as 6.3%; in experiment [14] (Table XIII, 10 g/ton), 14.1%; in experiment [14] (Table XIII, 20 g/ton), 11.3%. Also, the “Weight Gain % Impr.” value is recorded as 8.3% in [14] (Table XIII, 5 g/ton); 24.4% in experiment [14] (Table XIII, 10 g/ton); 27.6% in [14] (Table XIII, 20 g/ton). Besides, in experiment [14], the “weight gains in chickens (in words)” value was “increased weight gains”. The “ED50 Value” in experiment [11] is given as 0.94 mg/kg × 2.
